Tested on: 556581-035-R-J1-PDC spheroids with HUVEC/MSC, viability
Experiment: Anticancer human tumor 556581-035-R-J1-PDC patient-derived ovarian carcinoma cell line growth inhibition [IpAb]
Details: for IC50: curve of first compound; for viability, T/C: stronger effect = lower value
Excerpt: Combinatorial screen of targeted agents with ipatasertib and abemaciclib in multi-cell type tumor spheroids
A high-throughput screen of multi-cell type tumor spheroids was designed to identify active combinations of targeted small molecules and ipatasertib or abemaciclib. Complex spheroids include a stromal component modeled by human endothelial cells (HUVEC) and fibroblasts modeled by human mesenchymal stem cells (MSCs). The concentration ranges selected for each drug and investigational agent were based upon clinically achievable concentrations if the clinical Cmax of the agent was known.
Compounds. The drugs and investigational agents: ipatasertib (NSC767898), abemaciclib(NSC768073), selumetinib (NSC741078), trametinib (758246), adavosertib (NSC754352), everolimus (NSC733504), sapanisertib (NSC764658), vemurafenib (NSC761431), venetoclax (NSC766270), copanlisib (NSC809693), apelisib (NSC765974), palbociblib (NSC758247), vemurafenib (NSC761431), dabrafenib (NSC764134), ravoxertinib (NSC781343), BMS-387032 (NSC767048), sotorasib (NSC818433), talazoparib (NSC767125) and afursertib (NSC778305), were obtained from the National Cancer Institute (NCI) Developmental Therapeutics Program Chemical Repository. The FDA-approved anticancer drug set is available from the NCI Developmental Therapeutics Program. […] The stock solutions were prepared in dimethyl sulfoxide (DMSO, Sigma-Aldrich, St. Louis, MO, cat. D2650) at 800-fold the tested concentration and stored at -70 degrees C prior to their use. All drugs and investigational agents were tested over a range starting from a high concentration at or near the clinical Cmax and decreasing in half-log increments. If the clinical Cmax for an agent had not been determined, the highest concentration tested was 10 microM.
NCI60 Cell Culture. NCI60 cell lines were obtained from the NCI Developmental Therapeutics Program Tumor Repository. For each lot of cells, the Repository performed Applied Biosystems AmpFLSTR Identifiler testing with PCR amplification to confirm consistency with the published Identifier STR profile for each cell line. Cells were kept in continuous culture for no more than 20 passages. The optimal seeding densities for each of the cell lines at each time point assessed were determined prior to performing the concentration response studies. Briefly, the NCI60 human tumor lines were grown as monolayers in RPMI 1640 medium supplemented with 10% FBS and 2 mmol/L L-glutamine.
An additional 9 lines were from the NCI60 cell line panel including MDA-MB-231 breast carcinoma, MDA-MB-468 breast carcinoma, MCF7 breast carcinoma, Hs578T breast carcinoma, MALME-3M melanoma, SK-MEL-2 melanoma, SK-OV-3 ovarian carcinoma, DU-145 prostate carcinoma, PC-3 prostate carcinoma, all cell lines along with major genetic alterations are listed on Table 2. Pooled donor human umbilical vein endothelial cells (HUVEC, Lonza, cat. CC-2519) and human mesenchymal stem cells (hMSC, Lonza, cat. PT-2501) were purchased from Lonza (Walkersville, MD).
PDMR cell lines were grown in complete medium (DC medium): Dulbecco's modified Eagle's medium (DMEM)/F12 supplemented with 5% fetal bovine serum (FBS), 2 mM L-glutamine, 100 U/mL penicillin and 100 µg/ml streptomycin, 0.4 µg/ml hydrocortisone, 10 ng/ml epidermal growth factor (EGF) recombinant human protein, 24 µg/mL adenine, and 0.1 mg/mL primocin. During culture from frozen stock vials, PDMR cells were cultured in the same medium containing 10 µM Y-27632 (see Table 3). The PDCs were cultured in complete DMEM/F12 media without 10 microM Y-27632 dihydrochloride for at least two passages prior to the screen. The pooled donor HUVEC and hMSC were cultured in endothelial cell growth medium 2 (PromoCell, Heidelberg, Germany, cat. C-22011) and mesenchymal stem cell growth medium 2 (PromoCell, cat. C-28009), respectively. For all experiments, HUVEC and hMSC were used at passages </=5.
[…]

[1] = second compound 0.1 µM, first compound 0.0316 µM
[2] = second compound 0.1 µM, first compound 0.1 µM
[3] = second compound 0.1 µM, first compound 0.316 µM
[4] = second compound 0.1 µM, first compound 1 µM
[5] = second compound 0.316 µM, first compound 0.0316 µM
[6] = second compound 0.316 µM, first compound 0.1 µM
[7] = second compound 0.316 µM, first compound 0.316 µM
[8] = second compound 0.316 µM, first compound 1 µM
[9] = second compound 1 µM, first compound 0.0316 µM
[10] = second compound 1 µM, first compound 0.1 µM
[11] = second compound 1 µM, first compound 0.316 µM
[12] = second compound 1 µM, first compound 1 µM
[13] = second compound 3.16 µM, first compound 0.0316 µM
[14] = second compound 3.16 µM, first compound 0.1 µM
[15] = second compound 3.16 µM, first compound 0.316 µM
[16] = second compound 3.16 µM, first compound 1 µM
[17] = second compound 10 µM, first compound 0.0316 µM
[18] = second compound 10 µM, first compound 0.1 µM
[19] = second compound 10 µM, first compound 0.316 µM
[20] = second compound 10 µM, first compound 1 µM
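Note: spheroids exposed to compounds for 7 days before readout.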

SMILES: CCCS(=O)(=O)Nc1ccc(F)c(C(=O)c2c[nH]c3ncc(-c4ccc(Cl)cc4)cc23)c1F + CC(C)NCC(C(=O)N1CCN(c2ncnc3c2C(C)CC3O)CC1)c1ccc(Cl)cc1
- IC50 (second compound 0.1 µM): > 10000 nM
- IC50 (second compound 0.316 µM): > 10000 nM
- IC50 (second compound 1 µM): > 10000 nM
- IC50 (second compound 3.16 µM): 4620 nM
- IC50 (second compound 10 µM): 31.6 nM
- viability, T/C [1]: 80.4%
- viability, T/C [2]: 83%
- viability, T/C [3]: 97.2%
- viability, T/C [4]: 88.6%
- viability, T/C (second compound 0.1 µM, first compound 3.16 µM): 90%
- viability, T/C (second compound 0.1 µM, first compound 10 µM): 54.3%
- viability, T/C [5]: 90%
- viability, T/C [6]: 73.9%
- viability, T/C [7]: 71.8%
- viability, T/C [8]: 80.8%
- viability, T/C (second compound 0.316 µM, first compound 3.16 µM): 78.2%
- viability, T/C (second compound 0.316 µM, first compound 10 µM): 59.9%
- viability, T/C [9]: 67.1%
- viability, T/C [10]: 69%
- viability, T/C [11]: 61.5%
- viability, T/C [12]: 71.3%
- viability, T/C (second compound 1 µM, first compound 3.16 µM): 69.1%
- viability, T/C (second compound 1 µM, first compound 10 µM): 40.4%
- viability, T/C [13]: 49.2%
- viability, T/C [14]: 61.8%
- viability, T/C [15]: 55.5%
- viability, T/C [16]: 55.8%
- viability, T/C (second compound 3.16 µM, first compound 3.16 µM): 54.5%
- viability, T/C (second compound 3.16 µM, first compound 10 µM): 40.8%
- viability, T/C [17]: 45.1%
- viability, T/C [18]: 46.7%
- viability, T/C [19]: 47.2%
- viability, T/C [20]: 53.2%
- viability, T/C (second compound 10 µM, first compound 3.16 µM): 50.8%
- viability, T/C (second compound 10 µM, first compound 10 µM): 16.6%

SMILES: COc1c(OCCCN2CCOCC2)ccc2c3n(c(=NC(=O)c4cnc(N)nc4)nc12)CCN3 + CC(C)NCC(C(=O)N1CCN(c2ncnc3c2C(C)CC3O)CC1)c1ccc(Cl)cc1
- IC50 (second compound 0.1 µM): 25.4 nM
- IC50 (second compound 0.316 µM): 31.6 nM
- IC50 (second compound 1 µM): 19 nM
- IC50 (second compound 3.16 µM): 13.9 nM
- IC50 (second compound 10 µM): 3.33 nM
- viability, T/C (second compound 0.1 µM, first compound 0.00316 µM): 73.8%
- viability, T/C (second compound 0.1 µM, first compound 0.01 µM): 61.1%
- viability, T/C [1]: 45.6%
- viability, T/C [2]: 36.1%
- viability, T/C [3]: 16.5%
- viability, T/C [4]: 3.99%
- viability, T/C (second compound 0.316 µM, first compound 0.00316 µM): 91.6%
- viability, T/C (second compound 0.316 µM, first compound 0.01 µM): 62.8%
- viability, T/C [5]: 55.1%
- viability, T/C [6]: 31.5%
- viability, T/C [7]: 15.6%
- viability, T/C [8]: 2.82%
- viability, T/C (second compound 1 µM, first compound 0.00316 µM): 64.1%
- viability, T/C (second compound 1 µM, first compound 0.01 µM): 57%
- viability, T/C [9]: 42%
- viability, T/C [10]: 36.3%
- viability, T/C [11]: 14.6%
- viability, T/C [12]: 2.64%
- viability, T/C (second compound 3.16 µM, first compound 0.00316 µM): 50.2%
- viability, T/C (second compound 3.16 µM, first compound 0.01 µM): 45.2%
- viability, T/C [13]: 55.3%
- viability, T/C [14]: 39.3%
- viability, T/C [15]: 11.8%
- viability, T/C [16]: 5.41%
- viability, T/C (second compound 10 µM, first compound 0.00316 µM): 52%
- viability, T/C (second compound 10 µM, first compound 0.01 µM): 42.8%
- viability, T/C [17]: 38.5%
- viability, T/C [18]: 33.6%
- viability, T/C [19]: 14.7%
- viability, T/C [20]: 5.1%
